According to patent publication US20230174523A1, “BENZENESULFONAMIDE DERIVATIVES AS TRAP1 MODULATORS AND USES THEREOF” (Amathus Therapeutics, Inc., priority 2020, published 2023):

Target: T1, TRAP1 enzyme (Homo sapiens, UniProt Q12931)
T1 sequence (Q12931 60-704): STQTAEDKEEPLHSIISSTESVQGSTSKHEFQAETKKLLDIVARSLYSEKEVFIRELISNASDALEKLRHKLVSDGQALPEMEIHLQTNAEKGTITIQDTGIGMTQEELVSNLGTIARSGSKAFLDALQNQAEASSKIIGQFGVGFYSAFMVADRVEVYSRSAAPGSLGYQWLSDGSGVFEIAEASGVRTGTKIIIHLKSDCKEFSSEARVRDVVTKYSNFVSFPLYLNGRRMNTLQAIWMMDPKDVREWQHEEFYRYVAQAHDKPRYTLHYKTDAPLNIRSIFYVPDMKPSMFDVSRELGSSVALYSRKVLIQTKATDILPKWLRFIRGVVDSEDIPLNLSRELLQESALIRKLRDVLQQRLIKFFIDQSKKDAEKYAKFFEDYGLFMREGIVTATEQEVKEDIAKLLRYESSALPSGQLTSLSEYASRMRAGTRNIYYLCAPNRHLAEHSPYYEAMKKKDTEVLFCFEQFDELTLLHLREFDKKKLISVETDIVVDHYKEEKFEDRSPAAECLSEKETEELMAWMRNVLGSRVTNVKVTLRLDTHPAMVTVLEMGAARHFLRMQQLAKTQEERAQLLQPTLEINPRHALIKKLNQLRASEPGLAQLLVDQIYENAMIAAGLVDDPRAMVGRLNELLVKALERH
Experiment: Malachite green phosphate assay of TRAP1 ATPase activity
Type: biochemical
Conditions: for EC50: TRAP1 ATPase activation, 150 nM Trap1, 20 μM ATP, geometric mean, read-out: Malachite Green Fluor DRC: GeoMean EC50; for Emax: read-out: Malachite Green Fluor DRC: Mean Emax
Experimental: The Potency of test compounds to modulate the ATPase activity of TRAP1 enzyme was evaluated using malachite green phosphatase assay. The assay is based on quantification of the green complex formed between Malachite Green, molybdate and inorganic phosphate generated in the phosphatase reaction. Assays were performed using a Malachite Green assay kit. All the assays were carried out in a 96-well transparent plate. The buffer used was 50 mM HEPES (pH 7.5), 20 mM KCl, 4 mM MgCl2 and 0.05% BSA. 150 nM Trap1 enzyme was incubated with various concentrations of the test compound (0.78 μM-100 μM) at 37° C. for 30 mins. 20 μM ATP was added to each well (except blank wells) to start the reaction and the plate was then incubated at 37° C. for 180 mins. 10 μl of the reaction volume of each sample was then transferred to a white 384-well proxiplate in quadruplets. 2.5 μl of Malachite Green reagent was added to all the wells and the plate was equilibrated for 15 mins. The reaction was stopped by adding 12% H2SO4 and the plate was read for fluorescence at 620 nm (λex=573 nm). The amount of phosphate released was estimated from a phosphate standard curve generated at the same experimental conditions. Emax (Maximal percent activation) and EC50 (concentration of test compound for half maximal activation) were estimated by fitting the dose response data to a sigmoidal curve fitting equation using Graphpad Prism software V.7.0.

With `COc1ccc(NC(=O)c2ncc(-c3ccccc3)o2)cc1S(=O)(=O)Nc1c(Cl)cccc1Cl` [Compound 451] the EC50 was < 10 µM and the Emax was 123 to 159%.

For `COc1ccc(NC(=O)c2nnc(-c3ccccc3)o2)cc1S(=O)(=O)Nc1c(Cl)cccc1Cl` [Compound 469], the EC50 was < 10 µM and the Emax was 160 to 199%.

`COc1ccc(NC(=O)c2cnc(-c3ccccc3)o2)cc1S(=O)(=O)Nc1c(C)cccc1C` [Compound 470] was tested, and the EC50 was < 10 µM and the Emax was 200 to 300%.

`COc1ccc(NC(=O)c2cnccc2C)cc1S(=O)(=O)Nc1c(C)cccc1C` [Compound 471] showed an EC50 of 20 to 100 µM and an Emax of 160 to 199%.

`O=C(Nc1cccc(S(=O)(=O)N2CCOc3cc(Cl)ccc32)c1)c1ncc(-c2ccccc2)o1` [Compound 477] was tested, and the EC50 was < 10 µM and the Emax was 160 to 199%.

For `Cc1ncoc1C(=O)Nc1cccc(S(=O)(=O)N2CCOc3cc(Cl)ccc32)c1` [Compound 479], the EC50 was 10 to 20 µM and the Emax was 160 to 199%.

`COc1ccc(NC(=O)c2csc(-c3ccccc3)n2)cc1S(=O)(=O)Nc1ccc(Cl)cc1` [Compound 487] was tested, and the EC50 was 10 to 20 µM and the Emax was 160 to 199%.

`COc1ccc(NC(=O)c2oc(-c3ccccc3)nc2C)cc1S(=O)(=O)Nc1ccc(Cl)cc1` [Compound 488] gave an EC50 of 10 to 20 µM and an Emax of 200 to 300%.

`COc1ccc(NC(=O)c2cnccc2C(C)C)cc1S(=O)(=O)Nc1ccc(Br)cc1` [Compound 493] gave an EC50 of 20 to 100 µM and an Emax of 160 to 199%.

Work on `COc1ccc(NC(=O)c2cnccc2C(C)C)cc1S(=O)(=O)Nc1ccc(Cl)cc1` [Compound 496] yielded an EC50 of 20 to 100 µM and an Emax of 160 to 199%.

In the case of `COc1ccc(NC(=O)c2ccc(-c3ccccc3)o2)cc1S(=O)(=O)Nc1ccc(Cl)cc1` [Compound 499], the EC50 is reported as 20 to 100 µM and the Emax is reported as 160 to 199%.

For `COc1ccc(NC(=O)c2nnc(-c3ccccc3)s2)cc1S(=O)(=O)Nc1ccc(Cl)cc1` [Compound 500], the EC50 was 10 to 20 µM and the Emax was 200 to 300%.

With `O=C(Nc1ccc(F)c(S(=O)(=O)Nc2c(F)cc(Cl)cc2F)c1)c1ncc(-c2ccccc2)o1` [Compound 503] the EC50 was < 10 µM and the Emax was 123 to 159%.

For `Cc1ncoc1C(=O)Nc1cccc(S(=O)(=O)N2CCC(C)(C)c3cc(Cl)ccc32)c1` [Compound 517], the EC50 was 10 to 20 µM and the Emax was 160 to 199%.

In the case of `COc1ccc(NC(=O)c2cnc(-c3ccccc3)[nH]2)cc1S(=O)(=O)N(CCOCCOCCOCCN)c1ccc(Br)cc1` [Compound 526, N-(3-(N-(2-(2-(2-(2-aminoethoxy)ethoxy)ethoxy)ethyl)-N-(4-bromophenyl)sulfamoyl)-4-methoxyphenyl)-2-phenyl-1H-imidazole-5-carboxamide], the EC50 is reported as 20 to 100 µM and the Emax is reported as > 300%.

In the case of `CC1(C)CCN(S(=O)(=O)c2cccc(NC(=O)c3cnc(-c4ccccc4)[nH]3)c2)c2ccc(Cl)cc21` [Compound 534], the EC50 is reported as 20 to 100 µM and the Emax is reported as 200 to 300%.

With `COc1ccc(NC(=O)c2nc(Br)ccc2C)cc1S(=O)(=O)Nc1ccc(Cl)cc1` [Compound 537] the EC50 was 10 to 20 µM and the Emax was 200 to 300%.

`Cc1ccc(NS(=O)(=O)c2cc(NC(=O)c3ncc(-c4ccccc4)o3)ccc2CC(=O)O)cc1` [Compound 541] gave an EC50 of 20 to 100 µM and an Emax of 200 to 300%.

With `C=C(C)c1nc(C(=O)Nc2ccc(OC)c(S(=O)(=O)Nc3ccc(Cl)cc3)c2)oc1-c1ccccc1` [Compound 545] the EC50 was < 10 µM and the Emax was 123 to 159%.

With `COc1ccc(NC(=O)c2cnc[nH]2)cc1S(=O)(=O)N(CCOCCOCCOCCN)c1ccc(Br)cc1` [Compound 546] the EC50 was 20 to 100 µM and the Emax was 160 to 199%.

For `CCc1ccc(NC(=O)c2ncc(-c3ccccc3)o2)cc1S(=O)(=O)Nc1ccc(Cl)nc1` [Compound 548], the EC50 was < 10 µM and the Emax was 123 to 159%.

For `Cc1ncoc1C(=O)Nc1cccc(S(=O)(=O)N(c2ccc(Cl)cc2)C(C)C)c1` [Compound 551], the EC50 was 10 to 20 µM and the Emax was 160 to 199%.

In the case of `CCOC(=O)Cc1ccc(NC(=O)c2ncc(-c3ccccc3)o2)cc1S(=O)(=O)Nc1ccc(Cl)cc1` [Compound 558], the EC50 is reported as 10 to 20 µM and the Emax is reported as 160 to 199%.

`COc1ccc(NC(=O)c2nc(-c3ccccc3)ccc2C)cc1S(=O)(=O)Nc1ccc(Cl)cc1` [Compound 565, N-(3-(N-(4-chlorophenyl)sulfamoyl)-4-methoxyphenyl)-3-methyl-6-phenylpicolinamide] gave an EC50 of 20 to 100 µM and an Emax of 123 to 159%.

Molecule `CCc1ccc(NC(=O)c2ncn(C)n2)cc1S(=O)(=O)Nc1ccc(Cl)cc1` [Compound 575] has an EC50 of 20 to 100 µM and an Emax of 160 to 199%.

With `CC(C)c1ccc(NC(=O)c2cnc(-c3ccccc3)o2)cc1S(=O)(=O)Nc1ccc(Cl)cc1` [Compound 576] the EC50 was 10 to 20 µM and the Emax was 160 to 199%.

With `CC(C)c1ccc(NC(=O)c2ncc(-c3ccccc3)o2)cc1S(=O)(=O)Nc1ccc(Cl)cc1` [Compound 580] the EC50 was < 10 µM and the Emax was 123 to 159%.

`COc1ccc(NC(=S)c2ncc(-c3ccccc3)o2)cc1S(=O)(=O)Nc1ccc(Cl)cc1` [Compound 583, N-(3-(N-(4-chlorophenyl)sulfamoyl)-4-methoxyphenyl)-5-phenyloxazole-2-carbothioamide] showed an EC50 of 10 to 20 µM and an Emax of 160 to 199%.

With `C=C(C)c1ncoc1C(=O)Nc1ccc(OC)c(S(=O)(=O)Nc2ccc(Cl)cc2)c1` [Compound 593] the EC50 was 20 to 100 µM and the Emax was 200 to 300%.

For `CCc1ccc(NC(=O)c2nnc(-c3ccccc3)[nH]2)cc1S(=O)(=O)Nc1ccc(Cl)cc1` [Compound 595], the EC50 was 10 to 20 µM and the Emax was 200 to 300%.

`COc1ccc(NC(=S)c2ncco2)cc1S(=O)(=O)Nc1ccc(Cl)cc1` [Compound 598, N-(3-(N-(4-chlorophenyl)sulfamoyl)-4-methoxyphenyl) oxazole-2-carbothioamide] gave an EC50 of 20 to 100 µM and an Emax of 200 to 300%.

`CCOC(=O)/C=C/c1ccc(NC(=O)c2ncc(-c3ccccc3)o2)cc1S(=O)(=O)Nc1ccc(Cl)cc1` [Compound 634] was tested, and the EC50 was < 10 µM and the Emax was 123 to 159%.

In the case of `COc1ccc(NC(=O)c2cnc(-c3ccccc3)[nH]2)cc1S(=O)(=O)N(CCOCCOCCN)c1ccc(Br)cc1` [Compound 637], the EC50 is reported as 20 to 100 µM and the Emax is reported as > 300%.

`O=C(O)/C=C/c1ccc(NC(=O)c2ncc(-c3ccccc3)o2)cc1S(=O)(=O)Nc1ccc(Cl)cc1` [Compound 648] was tested, and the EC50 was < 10 µM and the Emax was 160 to 199%.

Molecule `COc1ccc(NC(=O)c2cnc(-c3ccccc3)o2)cc1S(=O)(=O)Nc1ccc(C(F)(F)F)cc1` [Compound 650] has an EC50 of 20 to 100 µM and an Emax of 200 to 300%.

`O=C(Nc1ccc(OC(F)(F)F)c(S(=O)(=O)Nc2c(Cl)cccc2Cl)c1)c1cnc(-c2ccccc2)o1` [Compound 655] was tested, and the EC50 was < 10 µM and the Emax was 160 to 199%.

Work on `COc1ccc(NC(=O)c2cnc(-c3ccccc3)o2)cc1S(=O)(=O)Nc1c(Cl)cccc1Cl` [Compound 662] yielded an EC50 of 10 to 20 µM and an Emax of 160 to 199%.

`O=C(Nc1ccc(F)c(S(=O)(=O)Nc2ccc(Cl)cc2)c1)c1cc(Cl)ncc1C(F)(F)F` [Compound 743] gave an EC50 of 20 to 100 µM and an Emax of 200 to 300%.

With `COc1ccc(NC(=O)c2cccn2-c2ccccc2)cc1S(=O)(=O)Nc1c(C)cccc1C` [Compound 1042] the EC50 was < 10 µM and the Emax was 160 to 199%.

With `COc1ccc(NC(=O)c2ccc3cnccc3n2)cc1S(=O)(=O)Nc1c(C)cccc1C` [Compound 1047] the EC50 was 10 to 20 µM and the Emax was 160 to 199%.

Molecule `COc1ccc(NC(=O)c2ccccc2N2CCOCC2)cc1S(=O)(=O)Nc1c(C)cccc1C` [Compound 1048] has an EC50 of 10 to 20 µM and an Emax of 160 to 199%.

In the case of `COc1ccc(NC(=O)c2cc3sccc3s2)cc1S(=O)(=O)Nc1c(C)cccc1C` [Compound 1051], the EC50 is reported as < 10 µM and the Emax is reported as 160 to 199%.
